Results: patent publication US20210189346A1, “METHOD OF CULTURING PROLIFERATIVE HEPATOCYTES” (INSERM (INSTITUT NATIONAL DE LA SANTÉ ET DE LA RECHERCHE …, priority 2018, published 2021)
Read-outs that look alike come from different tables or passages of the source.

Key:
[1] = test system: CYP1A2; assay type: cell-based, human; conditions: 3-MC 5 μM for 24 h; 3D versus control 2D culture
Description: Then, total RNA was extracted from cell pellets using NucleoSpin RNA (Macherey-Nagel, Hoerdt, France) and the concentration of total RNA was measured with a NanoDrop ND-1000 (NanoDrop Technologies, Wilmington, USA). Total RNA was used for cDNA synthesis using the High Capacity cDNA reverse transcription kit (Applied Biosystems, Saint Aubin, France). Real-time PCR for all genes was performed using SYBR green technology with the Power SYBR Green PCR master mix (Applied Biosystems, Saint Aubin, France) and the CFX384 Real-Time System (Biorad) according to the manufacturer's recommendations. Primer sequences used are described in Tables 2 and 3 below.
The amplification curves were analyzed with the Biorad CFX Manager software using the comparative regression method. GAPDH was used for the normalization of expression data. The relative amount of measured mRNA in samples was determined using the 2-ΔΔCT method where ΔΔCT=(CTtarget-CTGAPDH)sample−(CTtarget-CTGAPDH)calibrator. Final results were expressed as the n-fold differences in target gene expression in tested samples when compared with the mean expression value of calibrator. Values are given for one experiment representative of at least three independent experiments.

[2] = test system: CYP 1A1/2; conditions: human
[3] = test system: primary human hepatocytes (PHH); assay type: cell-based
Description: After 9 days, immuno-histochemical staining was performed as described hereinabove to detect the presence of phosphorylated H2AX (i.e., γH2Ax), a marker of DNA double-strand break, in the PHH.

[4] = test system: primary human hepatocytes (PHH)
Description: PHH either in control 2D culture (2D) or in 3D culture established according to the method of the invention in a collagen matrix (3D) were incubated with the indicated genotoxic drugs at the indicated concentrations (see Table 7) from the start of the culture. After 9 days, PHH were extracted from the collagen matrix by the action of purified collagenase. The cell pellets were resuspended in 0.5% low-melting point agarose and laid on conventional microscope slides covered with regular agarose. The electrophoresis migration was processed and after staining with propidium iodide, at least 100 images were acquired using a fluorescence microscope. The images were analyzed using the Comet Assay IV software. The extent of DNA damage in individual cells was evaluated by the percentage of tail DNA.

[5] = test system: MAPK MEK1/2-ERK1/2 pathway
[6] = test system: primary human hepatocytes (PHH); remark: listed apart in the source

Cc1ccc2cc3c(ccc4ccccc43)c3c2c1CC3 [3-MC, 3-methylcholanthrene]
CYP1A2 mRNA expression after 3-MC induction [1]: significantly increased CYP1A2 mRNA expression in PHH in 3D culture as compared to that in PHH in control 2D culture
induction of CYP1A (EROD) activity [2]: potentialization of 3-methylcholanthrene (3-MC) induction of CYP1A (EROD) activity was only observed in PHH in 3D culture

Nc1ccc(-c2ccccc2)cc1 [4-ABP, 4-aminobiphenyl]
PHH with DNA damages (γH2Ax positive cells) ([3]; human): about 50%
levels of DNA damages in 3D culture, in words [4]: higher (about the double) and dose-dependent levels of DNA damages
levels of DNA damages (percentage of tail DNA) ([4]; human): about 3%

N#CC(=C(/N)Sc1ccccc1N)/C(C#N)=C(\N)Sc1ccccc1N [U0126]
ERK1/2 activity (ERK1/2 phosphorylation) [5]: strong inhibition of ERK1/2 activity
Ki67 / cyclin D1 positive cells after transient MEK/ERK inhibition [6]: No positive cells could be detected

aflatoxin B1 [AFB1]
PHH with DNA damages (γH2Ax positive cells) [3]: about 35%
